We go through 43 compounds from US20150191469A1, “COMPOUNDS AND METHODS FOR TREATING HIV” (priority 2012, published 2015).

For this assay, the system named is HIV. The experiment in a line: MT4 assay: antiviral HIV activity (cell protection, cell titer glo readout at 96 hours). Type of assay: cell-based. The note with it: Human immunodeficiency virus 1, MT4, 96 h, MT4 cells, cell titer glo readout at 96 hours, 10 point dose response; read-out: HIV MT4 Assay IC50. In outline:
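MT-4 cells infected with HIV, with inhibition readout by CellTiter-Glo luminescence at 96 h relative to no-compound control. Cytotoxicity measured in parallel under the same conditions. IC50 from a 10-point, 3-4-fold dilution series spanning >1000-fold, fitted with a four-parameter logistic equation.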
For orientation: ATP-based viability assays read luminescence as a measure of living cells.

With `CC(=O)N1CCCN(C(=O)c2cc3c(-c4cc(F)c5c(c4C)CCCO5)c([C@H](OC(C)(C)C)C(=O)O)c(C)nc3n2C)CC1` [Example 197], the IC50 (in general, the concentration that inhibits the measured activity by half) is 6810 nM.

Turning to `Cc1nc2c(cc(-c3ccnc(N4CC(N5CCOCC5)C4)c3)n2C)c(-c2cc(F)c3c(c2C)CCCO3)c1[C@H](OC(C)(C)C)C(=O)O` [Example 2, (2S)-2-(tert-butoxy)-2-[4-(8-fluoro-5-methyl-3,4-dihydro-2H-1-benzopyran-6-yl)-1,6-dimethyl-2-{2-[3-(morpholin-4-yl)azetidin-1-yl]pyridin-4-yl}-1H-pyrrolo[2,3-b]pyridin-5-yl]acetic acid], the IC50 was found to be 15.6 nM.

Regarding `Cc1nc2c(cc(-c3nnc(N4CCN(C5COC5)CC4)o3)n2C)c(-c2cc(F)c3c(c2C)CCCO3)c1[C@H](OC(C)(C)C)C(=O)O` [Example 315], the IC50 was determined as 40.6 nM.

As for `Cc1nc2c(cc(C(=O)NCCCN3CCCC3=O)n2C)c(-c2cc(F)c3c(c2C)CCCO3)c1[C@H](OC(C)(C)C)C(=O)O` [Example 273], the IC50 turned out to be 939 nM.

For the compound `Cc1nc2c(cc(-c3nnc(N4CCN(CC5CCOCC5)CC4)o3)n2C)c(-c2cc(F)c3c(c2C)CCCO3)c1[C@H](OC(C)(C)C)C(=O)O` [Example 322], the IC50 was determined as 4.6 nM.

Take `Cc1nc2c(cc(-c3ccnc(-c4cnc(N(C)C)nc4)c3)n2C)c(-c2cc(F)c3c(c2C)CCCO3)c1[C@H](OC(C)(C)C)C(=O)O` (atropisomer, axis not shown) [Example 33]: the IC50 turned out to be 7.2 nM.

Turning to `Cc1nc2c(cc(-c3csc(N4C[C@@H](C)O[C@@H](C)C4)n3)n2C)c(-c2cc(F)c3c(c2C)CCCO3)c1[C@H](OC(C)(C)C)C(=O)O` (racemic) [Example 409], the IC50 is 13.4 nM.

Turning to `Cc1nc2c(cc(-c3ccnc(-c4ccc5c(cnn5C)c4)c3)n2C)c(C)c1[C@H](OC(C)(C)C)C(=O)O` [Example 426], the IC50 was 45000 nM.

Regarding `Cc1nc2c(cc(-c3nc(N4CCN(CC5CC5)CC4)ns3)n2C)c(-c2cc(F)c3c(c2C)CCCO3)c1[C@H](OC(C)(C)C)C(=O)O` [Example 386], the IC50 worked out at 5.9 nM.

In the case of `Cc1nc2c(cc(-c3ccnc(N4CCCN(C5CCOC5)CC4)c3)n2C)c(-c2cc(F)c3c(c2C)CCCO3)c1[C@H](OC(C)(C)C)C(=O)O` (stereo partly shown) [Example 126], the IC50 was determined as 22.5 nM.

As to `Cc1nc2c(cc(-c3nnc(N4CCC(N5CCCC5)CC4)o3)n2C)c(-c2cc(F)c3c(c2C)CCCO3)c1[C@H](OC(C)(C)C)C(=O)O` [Example 344], the IC50 amounted to 130 nM.

As for `Cc1nc2c(cc(-c3nc(N4CCN(C(=O)C5CCOCC5)CC4)ns3)n2C)c(-c2cc(F)c3c(c2C)CCCO3)c1[C@H](OC(C)(C)C)C(=O)O` [Example 391], the IC50 was 14.2 nM.

As to `Cc1nc2c(cc(-c3ccnc(-c4cccc5cnn(C)c45)c3)n2C)c(-c2cc(F)c3c(c2C)CCCO3)c1[C@H](OC(C)(C)C)C(=O)O` (atropisomer, axis not shown) [Example 59], the IC50 was 16 nM.

On to `CC(=O)NC1(c2ccccc2)CCN(C(=O)c2cc3c(-c4cc(F)c5c(c4C)CCCO5)c([C@H](OC(C)(C)C)C(=O)O)c(C)nc3n2C)CC1` [Example 217], for which the IC50 was determined as 3380 nM.

Take `Cc1nc2c(cc(-c3ccnc(N4CCCN(C(=O)C5CC5)CC4)c3)n2C)c(-c2cc(F)c3c(c2C)CCCO3)c1[C@H](OC(C)(C)C)C(=O)O` (atropisomer, axis not shown) [Example 104]: the IC50 was determined as 37.5 nM.

`Cc1nc2c(cc(CN3CCCN(C4COC4)CC3)n2C)c(-c2cc(F)c3c(c2C)CCCO3)c1[C@H](OC(C)(C)C)C(=O)O` [Example 289]: the IC50 came out at 171 nM.

As for `Cc1nc2c(cc(-c3ccnc(-c4ccc5c(cnn5C5CC5)c4)c3)n2C)c(-c2cc(F)c3c(c2C)CCCO3)c1[C@H](OC(C)(C)C)C(=O)O` (atropisomer, axis not shown) [Example 54], the IC50 amounted to 4.6 nM.

As for `Cc1nc2c(cc(C(=O)N3C[C@@H]4CC[C@H]3CN(C3COC3)C4)n2C)c(-c2cc(F)c3c(c2C)CCCO3)c1[C@H](OC(C)(C)C)C(=O)O` [Example 188], the 50% inhibitory concentration (IC50) turned out to be 86.7 nM.

In the case of `Cc1nc2c(cc(-c3ccnc(C#Cc4cncn4C)c3)n2C)c(-c2cc(F)c3c(c2C)CCCO3)c1[C@H](OC(C)(C)C)C(=O)O` (atropisomer, axis not shown; (M)) [Example 154, (2S)(M)-2-(tert-butoxy)-2-(-4-(8-fluoro-5-methylchroman-6-yl)-1,6-dimethyl-2-(2-((1-methyl-1H-imidazol-5-yl)ethynyl)pyridin-4-yl)-1H-pyrrolo[2,3-b]pyridin-5-yl)acetic acid], the IC50 turned out to be 11 nM.

`Cc1nc2c(cc(C(=O)NCCCN(C)C)n2C)c(-c2cc(F)c3c(c2C)CCCO3)c1[C@H](OC(C)(C)C)C(=O)O` [Example 247]: the IC50 stood at 18100 nM.

Consider `Cc1nc2c(cc(-c3ccc4nccn4c3)n2C)c(-c2cc(F)c3c(c2C)CCCO3)c1[C@H](OC(C)(C)C)C(=O)O` (atropisomer, axis not shown) [Example 136], for which the half-maximal inhibitory concentration (IC50) turned out to be 42.5 nM.

Regarding `Cc1nc2c(cc(-c3ccnc(N4CCN(C5COC5)CC4)c3)n2C)c(-c2cc(F)c3c(c2C)CCCO3)c1[C@H](OC(C)(C)C)C(=O)O` (atropisomer, axis not shown) [Example 25, (2S)-2-(tert-butoxy)-2-[4-(8-fluoro-5-methyl-3,4-dihydro-2H-1-benzopyran-6-yl)-1,6-dimethyl-2-{2-[4-(oxetan-3-yl)piperazin-1-yl]pyridin-4-yl}-1H-pyrrolo[2,3-b]pyridin-5-yl]acetic acid], the concentration for half-maximal inhibition (IC50) is 10.6 nM.

Take `Cc1nc2c(cc(-c3ccnc(-c4ccc5c(c4)CN(C4COC4)CC5)c3)n2C)c(-c2cc(F)c3c(c2C)CCCO3)c1[C@H](OC(C)(C)C)C(=O)O` (atropisomer, axis not shown) [Example 48]: the IC50 came out at 4.4 nM.

Take `Cc1nc2c(cc(-c3ccnc(-c4ccc5c(c4)CCN5C)c3)n2C)c(-c2cc(F)c3c(c2C)CCCO3)c1[C@H](OC(C)(C)C)C(=O)O` (atropisomer, axis not shown) [Example 8, (2S)-2-(tert-butoxy)-2-[4-(8-fluoro-5-methyl-3,4-dihydro-2H-1-benzopyran-6-yl)-1,6-dimethyl-2-[2-(1-methyl-2,3-dihydro-1H-indol-5-yl)pyridin-4-yl]-1H-pyrrolo[2,3-b]pyridin-5-yl]acetic acid]: the IC50 was 5.6 nM.

As for `Cc1nc2c(cc(C(=O)NCC3CCC3)n2C)c(-c2cc(F)c3c(c2C)CCCO3)c1[C@H](OC(C)(C)C)C(=O)O` [Example 276], the IC50 amounted to 10 nM.

For the compound `Cc1nc2c(cc(-c3ccn(C4CN(C5CCOCC5)C4)n3)n2C)c(-c2cc(F)c3c(c2C)CCCO3)c1[C@H](OC(C)(C)C)C(=O)O` [Example 187], the IC50 was determined as 26.5 nM.

Regarding `Cc1nc2c(cc(C(=O)NCc3ccccc3)n2C)c(-c2cc(F)c3c(c2C)CCCO3)c1[C@H](OC(C)(C)C)C(=O)O` [Example 209], the IC50 came out at 9.4 nM.

Consider `Cc1nc2c(cc(-c3nnc(N4CCC5(CCCCC5)CC4)o3)n2C)c(-c2cc(F)c3c(c2C)CCCO3)c1[C@H](OC(C)(C)C)C(=O)O` [Example 321], for which the IC50 worked out at 13.5 nM.

With `Cc1nc2c(cc(-c3nc(N4CCCN(C)CC4)ns3)n2C)c(-c2cc(F)c3c(c2C)CCCO3)c1[C@H](OC(C)(C)C)C(=O)O` [Example 398], the IC50 is 13.6 nM.

Regarding `Cc1nc2c(cc(C(=O)N3CCc4ccc(S(=O)(=O)NC(C)C)cc4C3)n2C)c(-c2cc(F)c3c(c2C)CCCO3)c1[C@H](OC(C)(C)C)C(=O)O` [Example 167], the IC50 turned out to be 357 nM.

In the case of `Cc1nc2c(cc(C(=O)N3CCC4(CC3)C(=O)NC(=O)N4C)n2C)c(-c2cc(F)c3c(c2C)CCCO3)c1[C@H](OC(C)(C)C)C(=O)O` [Example 221], the IC50 is 17600 nM.

Take `Cc1nc2c(cc(-c3ccnc(C#CC4(O)CCCCC4)c3)n2C)c(-c2cc(F)c3c(c2C)CCCO3)c1[C@H](OC(C)(C)C)C(=O)O` (atropisomer, axis not shown) [Example 159]: the IC50 amounted to 27.9 nM.

On to `Cc1nc2c(cc(-c3nsc(N4CCN(C5CC5)CC4)n3)n2C)c(-c2cc(F)c3c(c2C)CCCO3)c1[C@H](OC(C)(C)C)C(=O)O` [Example 373], for which the IC50 is 5.2 nM.

Regarding `Cc1nc2c(cc(-c3nnc(N(C)CCN4CCCC4)o3)n2C)c(-c2cc(F)c3c(c2C)CCCO3)c1[C@H](OC(C)(C)C)C(=O)O` [Example 305], the IC50 came out at 44.9 nM.

With `Cc1nc2c(cc(C(=O)N[C@H](C)c3ccccc3)n2C)c(-c2cc(F)c3c(c2C)CCCO3)c1[C@H](OC(C)(C)C)C(=O)O` [Example 190], the IC50 was 14.1 nM.

For the compound `Cc1nc2c(cc(/C=C/C(=O)NCc3ccc(F)cc3)n2C)c(-c2cc(F)c3c(c2C)CCCO3)c1[C@H](OC(C)(C)C)C(=O)O` [Example 417], the IC50 amounted to 33.7 nM.

As to `Cc1nc2c(cc(-c3nsc(N4CCN(C)CC4)n3)n2C)c(-c2cc(F)c3c(c2C)CCCO3)c1[C@H](OC(C)(C)C)C(=O)O` [Example 371], the IC50 came out at 8.4 nM.

Consider `Cc1nc2c(cc(-c3ccnc(N4CCN(C5CCOCC5)CC4)c3)n2C)c(-c2cc(F)c3c(c2C)CCCO3)c1[C@H](OC(C)(C)C)C(=O)O` (atropisomer, axis not shown) [Example 127], for which the IC50 is 3.6 nM.

On to `Cc1nc2c(cc(-c3ccnc(C(=O)NCc4c[nH]cn4)c3)n2C)c(-c2cc(F)c3c(c2C)CCCO3)c1[C@H](OC(C)(C)C)C(=O)O` (atropisomer, axis not shown) [Example 150], for which the IC50 came to 9360 nM.

Regarding `Cc1nc2c(cc(-c3ccn(C4CN(C(=O)OC(C)(C)C)C4)n3)n2C)c(-c2cc(F)c3c(c2C)CCCO3)c1[C@H](OC(C)(C)C)C(=O)O` [Example 185], the IC50 came out at 32.2 nM.

On to `Cc1nc2c(cc(-c3nnc(N4CCN5CCC[C@@H]5C4)o3)n2C)c(-c2cc(F)c3c(c2C)CCCO3)c1[C@H](OC(C)(C)C)C(=O)O` [Example 326], for which the IC50 is 3.8 nM.

As for `Cc1nc2c(cc(-c3ccnc(-c4ccc5c(cnn5C)c4)c3)n2C)c(-c2ccc3c(c2C)OCCO3)c1[C@H](OC(C)(C)C)C(=O)O` [Example 427], the IC50 stood at 2.7 nM.

In the case of `Cc1nc2c(cc(-c3ccnc(N4CCCN5CCCC5C4)c3)n2C)c(-c2cc(F)c3c(c2C)CCCO3)c1[C@H](OC(C)(C)C)C(=O)O` (stereo partly shown) [Example 124], the IC50 worked out at 32.5 nM.
